Test results reported in US20200216417A1, “INHIBITORS OF FIBROBLAST ACTIVATION PROTEIN” (Praxis Biotech LLC, priority 2019, published 2020).
Where two headings read alike, the source gives them in different places.

Key:
[1] = system: human AML cell line MV4-11; test: Cytotoxicity assay in human leukemia cell lines (Cell-Titer Glo); conditions: MV4-11, 48 h, read-out: MV4-11 viability IC50, μM
[2] = target: T1, recombinant human PREP (rhPREP) (Homo sapiens, UniProt P48147); test: PREP enzymatic activity assay, Z-Gly-Pro-AMC; assay type: biochemical
T1 sequence (P48147 1-710): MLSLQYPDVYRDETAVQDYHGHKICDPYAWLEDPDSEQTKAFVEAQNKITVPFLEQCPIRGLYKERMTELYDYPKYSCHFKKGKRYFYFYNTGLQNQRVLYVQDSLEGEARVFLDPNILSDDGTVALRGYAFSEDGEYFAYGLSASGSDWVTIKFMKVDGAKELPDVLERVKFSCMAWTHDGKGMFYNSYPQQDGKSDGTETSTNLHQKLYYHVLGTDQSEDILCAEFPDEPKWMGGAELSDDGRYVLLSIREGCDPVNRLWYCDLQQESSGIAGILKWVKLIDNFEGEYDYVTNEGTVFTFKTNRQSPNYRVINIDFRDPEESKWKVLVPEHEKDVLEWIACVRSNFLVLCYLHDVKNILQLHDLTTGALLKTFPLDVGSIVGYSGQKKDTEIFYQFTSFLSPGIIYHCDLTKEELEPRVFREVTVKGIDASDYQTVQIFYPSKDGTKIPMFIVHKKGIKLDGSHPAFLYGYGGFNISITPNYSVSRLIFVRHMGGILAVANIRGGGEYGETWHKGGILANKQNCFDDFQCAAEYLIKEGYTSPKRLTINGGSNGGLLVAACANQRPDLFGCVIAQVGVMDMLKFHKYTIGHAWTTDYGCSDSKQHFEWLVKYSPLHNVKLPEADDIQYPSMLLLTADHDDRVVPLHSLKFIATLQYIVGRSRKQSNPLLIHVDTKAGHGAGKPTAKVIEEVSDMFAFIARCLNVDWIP

[3] = target: T2, recombinant human DPPIV (rhDPPIV) (Homo sapiens, UniProt P27487); test: DPPIV enzymatic activity assay, H-Gly-Pro-pNA; assay type: biochemical
T2 construct: purchased R&S system (so in the source)

[4] = target: T3, recombinant human FAPα (rhFAPα) (Homo sapiens, UniProt Q12884); test: FAPα enzymatic exopeptidase (dipeptidase) activity assay, Z-Gly-Pro-AMC; assay type: biochemical; conditions: for inhibition at 1 µM: exopeptidase inhibition at 1 μM test compound
T3 construct: purchased R&S system (so in the source)
T3 sequence (Q12884 1-760): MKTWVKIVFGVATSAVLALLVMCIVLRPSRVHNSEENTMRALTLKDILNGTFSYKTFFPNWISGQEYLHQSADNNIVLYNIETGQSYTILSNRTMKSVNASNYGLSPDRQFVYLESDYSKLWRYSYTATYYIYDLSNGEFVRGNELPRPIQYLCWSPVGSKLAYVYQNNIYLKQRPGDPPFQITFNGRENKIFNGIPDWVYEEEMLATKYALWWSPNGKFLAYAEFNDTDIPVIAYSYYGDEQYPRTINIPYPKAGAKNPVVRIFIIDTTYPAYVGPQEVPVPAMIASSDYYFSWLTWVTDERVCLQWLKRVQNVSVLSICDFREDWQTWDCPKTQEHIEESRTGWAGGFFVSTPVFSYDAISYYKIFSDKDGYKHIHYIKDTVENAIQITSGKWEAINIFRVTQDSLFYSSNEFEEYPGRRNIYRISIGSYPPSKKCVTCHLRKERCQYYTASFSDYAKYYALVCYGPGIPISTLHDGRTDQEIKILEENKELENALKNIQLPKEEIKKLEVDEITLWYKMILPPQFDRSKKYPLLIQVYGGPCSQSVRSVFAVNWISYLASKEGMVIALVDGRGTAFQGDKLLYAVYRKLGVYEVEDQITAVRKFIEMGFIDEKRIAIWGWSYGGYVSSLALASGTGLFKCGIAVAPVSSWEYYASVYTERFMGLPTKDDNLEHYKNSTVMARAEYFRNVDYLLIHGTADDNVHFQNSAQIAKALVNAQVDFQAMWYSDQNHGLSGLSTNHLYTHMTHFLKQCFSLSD

[5] = target: T4, recombinant human DPP9 (rhDPP9) (Homo sapiens, UniProt Q86TI2); test: DPP9 inhibition assay, 10 ng rhDPP9, Tris-HCl/BSA buffer; assay type: biochemical; conditions: Table 3B
T4 construct: purchased R&S system / R&D systems (both sic) 5419-SE

[6] = target: T4, recombinant human DPP9 (rhDPP9); test: DPP9 enzymatic activity assay, 40 ng rhDPP9, HEPES buffer; assay type: biochemical; conditions: Table 3A
[7] = Table 3B, read-out: rhFAPα % exo inh @ 1 μM
[8] = Table 2, read-out: rhFAPα (% exo inh @ 1 μM)
[9] = exopeptidase, Table 2, read-out: rhFAPα (exo IC50)
[10] = exopeptidase, Table 3A, read-out: rhFAPα (exo IC50)

T4 sequence (Q86TI2 whole entry): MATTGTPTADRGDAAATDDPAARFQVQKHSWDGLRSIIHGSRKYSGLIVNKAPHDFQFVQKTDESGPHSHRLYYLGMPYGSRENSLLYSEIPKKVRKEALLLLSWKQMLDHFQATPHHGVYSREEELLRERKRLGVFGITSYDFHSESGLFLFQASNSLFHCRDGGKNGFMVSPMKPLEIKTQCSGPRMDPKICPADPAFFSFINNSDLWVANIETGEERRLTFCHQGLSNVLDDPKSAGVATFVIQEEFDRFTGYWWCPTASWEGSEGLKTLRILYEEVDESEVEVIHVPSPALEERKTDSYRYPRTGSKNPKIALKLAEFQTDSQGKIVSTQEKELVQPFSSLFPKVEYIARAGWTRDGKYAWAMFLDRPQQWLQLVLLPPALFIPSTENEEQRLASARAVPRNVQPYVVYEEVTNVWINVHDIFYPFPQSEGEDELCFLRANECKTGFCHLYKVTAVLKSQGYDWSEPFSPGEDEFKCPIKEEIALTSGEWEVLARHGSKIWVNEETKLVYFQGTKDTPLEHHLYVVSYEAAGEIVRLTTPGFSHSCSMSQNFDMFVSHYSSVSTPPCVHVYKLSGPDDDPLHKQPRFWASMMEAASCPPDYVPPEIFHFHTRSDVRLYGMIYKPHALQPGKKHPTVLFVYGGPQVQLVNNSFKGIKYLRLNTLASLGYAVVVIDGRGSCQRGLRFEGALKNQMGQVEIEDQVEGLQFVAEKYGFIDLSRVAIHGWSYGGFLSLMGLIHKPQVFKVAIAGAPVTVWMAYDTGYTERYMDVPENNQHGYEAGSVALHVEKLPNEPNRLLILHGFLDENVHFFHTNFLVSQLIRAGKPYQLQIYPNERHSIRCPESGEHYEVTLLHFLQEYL
T2 sequence (P27487 whole entry): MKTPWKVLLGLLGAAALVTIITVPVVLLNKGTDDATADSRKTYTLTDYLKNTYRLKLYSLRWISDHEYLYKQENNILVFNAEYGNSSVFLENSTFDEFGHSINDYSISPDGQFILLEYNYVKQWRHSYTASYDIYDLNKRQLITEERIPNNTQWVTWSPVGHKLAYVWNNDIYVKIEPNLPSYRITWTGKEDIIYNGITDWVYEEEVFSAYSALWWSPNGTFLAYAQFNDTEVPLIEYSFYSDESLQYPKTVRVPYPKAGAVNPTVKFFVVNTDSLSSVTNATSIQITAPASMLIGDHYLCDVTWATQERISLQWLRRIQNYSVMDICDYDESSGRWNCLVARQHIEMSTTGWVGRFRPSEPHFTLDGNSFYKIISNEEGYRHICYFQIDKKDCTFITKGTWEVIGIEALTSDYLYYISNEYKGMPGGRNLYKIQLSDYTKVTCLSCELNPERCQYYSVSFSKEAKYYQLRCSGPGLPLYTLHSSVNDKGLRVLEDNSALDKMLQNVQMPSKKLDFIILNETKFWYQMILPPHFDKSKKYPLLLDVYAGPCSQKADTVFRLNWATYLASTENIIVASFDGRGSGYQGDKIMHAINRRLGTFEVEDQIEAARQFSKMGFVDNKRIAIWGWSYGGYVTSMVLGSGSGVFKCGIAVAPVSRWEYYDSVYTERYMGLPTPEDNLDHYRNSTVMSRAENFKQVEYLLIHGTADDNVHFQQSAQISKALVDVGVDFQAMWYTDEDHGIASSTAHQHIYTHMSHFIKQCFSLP

SMILES	IC50 [1]	IC50 ([2]; Table 3B)	IC50 ([3]; Table 3B)	IC50 ([4]; Table 3B, read-out: rhFAP IC50)	inhibition at 1 µM [4, 7]	IC50 [5]	IC50 ([2]; Table 3A)	IC50 ([3]; Table 3A)	inhibition at 1 µM [4, 8]	IC50 [4, 9]	IC50 [4, 10]	IC50 [6]
Cc1cc(/C=C/c2ccc3nccc(C(=O)NCC(=O)N4CC(F)(F)C[C@H]4C#N)c3c2)ccn1 [Compound 192]	< 3 µM	> 10000 nM	1000 to 10000 nM	< 1000 nM	> 50%	< 1000 nM	–	–	–	–	–	–
N#C[C@@H]1CC(F)(F)CN1C(=O)CNC(=O)c1ccncc1CCc1ccc(Cl)cc1 [Compound 10, (S)-3-(4-chlorophenethyl)-N-(2-(2-cyano-4,4-difluoropyrrolidin-1-yl)-2-oxoethyl)isonicotinamide]	–	1000 to 10000 nM	1000 to 10000 nM	< 1000 nM	> 50%	1000 to 10000 nM	1000 to 10000 nM	1000 to 10000 nM	> 50%	< 1000 nM	< 1000 nM	1000 to 10000 nM
N#C[C@@H]1CC(F)(F)CN1C(=O)CNC(=O)c1ccnc(N2CCN(C(c3ccc(F)cc3)c3ccc(F)cc3)CC2)c1 [Compound 6, (S)-2-(4-(bis(4-fluorophenyl)methyl)piperazin-1-yl)-N-(2-(2-cyano-4,4-difluoropyrrolidin-1-yl)-2-oxoethyl)isonicotinamide]	–	–	–	< 1000 nM	> 50%	1000 to 10000 nM	–	–	> 50%	< 1000 nM	< 1000 nM	1000 to 10000 nM
Cc1ccc(/C=C/c2ccc3nccc(C(=O)NCC(=O)N4CC(F)(F)C[C@H]4C#N)c3c2)cn1 [Compound 45]	3 to 10 µM	> 10000 nM	> 10000 nM	< 1000 nM	> 50%	< 1000 nM	–	–	–	–	–	–
C/C(=C\c1cnccc1C(=O)NCC(=O)N1CC(F)(F)C[C@H]1C#N)c1ccc(F)cc1 [Compound 13, (S,E)-N-(2-(2-cyano-4,4-difluoropyrrolidin-1-yl)-2-oxoethyl)-3-(2-(4-fluorophenyl)prop-1-en-1-yl)isonicotinamide]	–	> 10000 nM	> 10000 nM	< 1000 nM	> 50%	1000 to 10000 nM	> 10000 nM	> 10000 nM	> 50%	< 1000 nM	< 1000 nM	1000 to 10000 nM
N#C[C@@H]1CC(F)(F)CN1C(=O)CNC(=O)c1ccnc2ccc(/C=C/c3ccc(C(F)(F)F)nc3)cc12 [Compound 46]	< 3 µM	> 10000 nM	> 10000 nM	< 1000 nM	> 50%	< 1000 nM	–	–	–	–	–	–
N#C[C@@H]1CC(F)(F)CN1C(=O)CNC(=O)c1ccncc1NC(=O)Cc1ccccc1 [Compound 1, (S)—N-(2-(2-cyano-4,4-difluoropyrrolidin-1-yl)-2-oxoethyl)-3-(2-phenylacetamido)isonicotinamide]	–	> 10000 nM	> 10000 nM	< 1000 nM	> 50%	1000 to 10000 nM	> 10000 nM	> 10000 nM	> 50%	< 1000 nM	< 1000 nM	> 10000 nM
N#C[C@@H]1CC(F)(F)CN1C(=O)CNC(=O)c1ccnc2ccc(/C=C/c3ccc(F)cc3)cc12 [Compound 44]	< 3 µM	> 10000 nM	> 10000 nM	< 1000 nM	> 50%	< 1000 nM	–	–	–	–	–	–
C=C(Cc1cnccc1C(=O)NCC(=O)N1CC(F)(F)C[C@H]1C#N)c1ccc(F)cc1 [Compound 14, (S)—N-(2-(2-cyano-4,4-difluoropyrrolidin-1-yl)-2-oxoethyl)-3-(2-(4-fluorophenyl)allyl)isonicotinamide]	–	1000 to 10000 nM	> 10000 nM	< 1000 nM	> 50%	1000 to 10000 nM	–	> 10000 nM	> 50%	< 1000 nM	< 1000 nM	1000 to 10000 nM
N#C[C@@H]1CC(F)(F)CN1C(=O)CNC(=O)c1ccnc2ccc(/C=C/c3ccc(O)nc3)cc12 [Compound 139]	> 10 µM	> 10000 nM	> 10000 nM	< 1000 nM	> 50%	< 1000 nM	–	–	–	–	–	–
COc1ccc(/C=C/c2cnccc2C(=O)NCC(=O)N2CC(F)(F)C[C@H]2C#N)cc1 [Compound 15]	> 10 µM	> 10000 nM	> 10000 nM	< 1000 nM	> 50%	< 1000 nM	–	–	–	–	–	–
N#C[C@@H]1CC(F)(F)CN1C(=O)CNC(=O)c1ccncc1/C=C/c1ccc(F)cc1 [Compound 12, (S,E)-N-(2-(2-cyano-4,4-difluoropyrrolidin-1-yl)-2-oxoethyl)-3-(4-fluorostyryl)isonicotinamide]	–	> 10000 nM	1000 to 10000 nM	< 1000 nM	> 50%	1000 to 10000 nM	> 10000 nM	1000 to 10000 nM	> 50%	< 1000 nM	< 1000 nM	1000 to 10000 nM
N#C[C@@H]1CC(F)(F)CN1C(=O)CNC(=O)c1ccncc1CCc1ccc(F)cc1 [Compound 11, (S)—N-(2-(2-cyano-4,4-difluoropyrrolidin-1-yl)-2-oxoethyl)-3-(4-fluorophenethyl)isonicotinamide]	–	1000 to 10000 nM	> 10000 nM	< 1000 nM	> 50%	1000 to 10000 nM	1000 to 10000 nM	> 10000 nM	> 50%	< 1000 nM	< 1000 nM	1000 to 10000 nM
CC(Nc1cnccc1C(=O)NCC(=O)N1CC(F)(F)C[C@H]1C#N)c1ccc(F)cc1 (stereo partly drawn) [Compound 4, N-(2-((S)-2-cyano-4,4-difluoropyrrolidin-1-yl)-2-oxoethyl)-3-((1-(4-fluorophenyl)ethyl)amino)isonicotinamide]	–	> 10000 nM	1000 to 10000 nM	< 1000 nM	> 50%	1000 to 10000 nM	> 10000 nM	1000 to 10000 nM	> 50%	< 1000 nM	< 1000 nM	> 10000 nM
C/C(=C\c1cnccc1C(=O)NCC(=O)N1CC(F)(F)C[C@H]1C#N)c1ccc(OC(F)(F)F)cc1 [Compound 19]	–	> 10000 nM	> 10000 nM	< 1000 nM	> 50%	1000 to 10000 nM	–	–	–	–	–	–
N#C[C@@H]1CC(F)(F)CN1C(=O)CNC(=O)c1ccnc2ccc(/C=C/c3ccc(OC(F)(F)F)cc3)cc12 [Compound 48]	–	> 10000 nM	> 10000 nM	< 1000 nM	> 50%	< 1000 nM	–	–	–	–	–	–
COc1ccc(C#Cc2cnccc2C(=O)NCC(=O)N2CC(F)(F)C[C@H]2C#N)cc1 [Compound 36]	–	> 10000 nM	> 10000 nM	< 1000 nM	> 50%	> 10000 nM	–	–	–	–	–	–
COc1ccc(/C=C/c2ccc3nccc(C(=O)NCC(=O)N4CC(F)(F)C[C@H]4C#N)c3c2)cn1 [Compound 43]	–	> 10000 nM	> 10000 nM	< 1000 nM	> 50%	< 1000 nM	–	–	–	–	–	–
